Measured values reported in PubChem BioAssay AID588472 (The Scripps Research Institute Molecular Screening Center, 2011).

How the values were obtained:
Assay in all cases: PubChem AID 588472
[1] = target: Protein-arginine deiminase type-2 (Homo sapiens) (UniProt Q9Y2J8); settings: recombinant PAD1-4, colorimetric citrullination assay; PAD2
[2] = target: Protein-arginine deiminase type-4 (Homo sapiens) (UniProt Q9UM07); settings: recombinant PAD1-4, colorimetric citrullination assay; PAD4
[3] = target: Protein-arginine deiminase type-3 (Homo sapiens) (UniProt Q9ULW8); settings: recombinant PAD1-4, colorimetric citrullination assay; PAD3
[4] = target: Protein-arginine deiminase type-1 (Homo sapiens) (UniProt Q9ULC6); settings: recombinant PAD1-4, colorimetric citrullination assay; PAD1
Sequence of Protein-arginine deiminase type-1 (Homo sapiens) (Q9ULC6 whole entry, looked up): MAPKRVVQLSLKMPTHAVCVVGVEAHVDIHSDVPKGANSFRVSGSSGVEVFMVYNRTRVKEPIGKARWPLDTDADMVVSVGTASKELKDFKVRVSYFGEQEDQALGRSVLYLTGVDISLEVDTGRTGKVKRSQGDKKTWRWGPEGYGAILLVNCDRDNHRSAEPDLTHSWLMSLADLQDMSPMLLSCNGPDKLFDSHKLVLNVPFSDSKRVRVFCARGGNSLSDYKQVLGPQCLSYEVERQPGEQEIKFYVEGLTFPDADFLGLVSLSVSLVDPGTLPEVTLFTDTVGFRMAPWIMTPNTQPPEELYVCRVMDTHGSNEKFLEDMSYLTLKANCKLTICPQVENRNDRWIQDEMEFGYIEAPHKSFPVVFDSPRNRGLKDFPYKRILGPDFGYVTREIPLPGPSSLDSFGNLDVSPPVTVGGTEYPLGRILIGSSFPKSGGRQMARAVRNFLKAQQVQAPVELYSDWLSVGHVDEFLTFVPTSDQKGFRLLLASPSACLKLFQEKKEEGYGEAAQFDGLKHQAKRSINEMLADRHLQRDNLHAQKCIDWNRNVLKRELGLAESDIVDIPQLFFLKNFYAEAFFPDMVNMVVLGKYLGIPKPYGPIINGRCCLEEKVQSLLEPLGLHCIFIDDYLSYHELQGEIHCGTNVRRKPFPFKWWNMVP

Sequence of Protein-arginine deiminase type-4 (Homo sapiens) (Q9UM07 whole entry, looked up): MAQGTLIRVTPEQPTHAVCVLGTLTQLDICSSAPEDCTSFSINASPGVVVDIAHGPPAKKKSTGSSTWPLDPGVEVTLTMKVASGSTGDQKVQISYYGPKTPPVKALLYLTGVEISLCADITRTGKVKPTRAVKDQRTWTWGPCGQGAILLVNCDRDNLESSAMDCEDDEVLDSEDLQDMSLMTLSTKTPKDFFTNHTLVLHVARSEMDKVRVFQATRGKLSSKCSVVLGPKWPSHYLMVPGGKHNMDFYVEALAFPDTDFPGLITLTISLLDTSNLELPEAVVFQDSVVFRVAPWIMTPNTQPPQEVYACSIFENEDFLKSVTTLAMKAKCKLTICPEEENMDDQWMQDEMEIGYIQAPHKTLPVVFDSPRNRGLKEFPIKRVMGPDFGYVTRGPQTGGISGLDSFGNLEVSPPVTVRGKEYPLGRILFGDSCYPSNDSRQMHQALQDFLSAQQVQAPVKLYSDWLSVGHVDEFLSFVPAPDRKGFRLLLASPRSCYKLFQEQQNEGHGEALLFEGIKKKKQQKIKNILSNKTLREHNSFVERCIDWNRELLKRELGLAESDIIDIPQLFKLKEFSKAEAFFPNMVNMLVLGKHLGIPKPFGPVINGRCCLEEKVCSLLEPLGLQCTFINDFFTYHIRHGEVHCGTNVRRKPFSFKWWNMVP
Sequence of Protein-arginine deiminase type-2 (Homo sapiens) (Q9Y2J8 whole entry, looked up): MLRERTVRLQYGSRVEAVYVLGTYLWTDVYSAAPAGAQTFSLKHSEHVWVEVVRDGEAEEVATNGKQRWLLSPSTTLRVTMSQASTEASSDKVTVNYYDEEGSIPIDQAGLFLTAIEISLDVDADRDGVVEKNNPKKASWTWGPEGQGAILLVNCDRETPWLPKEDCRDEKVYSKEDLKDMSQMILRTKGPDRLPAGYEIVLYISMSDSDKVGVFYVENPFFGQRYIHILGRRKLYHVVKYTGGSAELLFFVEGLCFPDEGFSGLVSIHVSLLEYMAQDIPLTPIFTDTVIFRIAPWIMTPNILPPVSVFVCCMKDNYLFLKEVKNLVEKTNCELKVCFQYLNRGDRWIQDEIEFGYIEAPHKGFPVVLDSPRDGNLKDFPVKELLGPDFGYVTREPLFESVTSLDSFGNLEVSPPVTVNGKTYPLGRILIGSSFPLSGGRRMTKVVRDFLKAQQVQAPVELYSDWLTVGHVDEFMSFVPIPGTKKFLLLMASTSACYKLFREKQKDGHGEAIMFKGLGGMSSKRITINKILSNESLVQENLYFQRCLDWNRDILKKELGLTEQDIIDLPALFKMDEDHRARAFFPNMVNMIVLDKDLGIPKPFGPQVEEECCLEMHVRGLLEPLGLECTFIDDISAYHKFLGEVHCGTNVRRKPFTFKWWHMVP
Sequence of Protein-arginine deiminase type-3 (Homo sapiens) (Q9ULW8 whole entry, looked up): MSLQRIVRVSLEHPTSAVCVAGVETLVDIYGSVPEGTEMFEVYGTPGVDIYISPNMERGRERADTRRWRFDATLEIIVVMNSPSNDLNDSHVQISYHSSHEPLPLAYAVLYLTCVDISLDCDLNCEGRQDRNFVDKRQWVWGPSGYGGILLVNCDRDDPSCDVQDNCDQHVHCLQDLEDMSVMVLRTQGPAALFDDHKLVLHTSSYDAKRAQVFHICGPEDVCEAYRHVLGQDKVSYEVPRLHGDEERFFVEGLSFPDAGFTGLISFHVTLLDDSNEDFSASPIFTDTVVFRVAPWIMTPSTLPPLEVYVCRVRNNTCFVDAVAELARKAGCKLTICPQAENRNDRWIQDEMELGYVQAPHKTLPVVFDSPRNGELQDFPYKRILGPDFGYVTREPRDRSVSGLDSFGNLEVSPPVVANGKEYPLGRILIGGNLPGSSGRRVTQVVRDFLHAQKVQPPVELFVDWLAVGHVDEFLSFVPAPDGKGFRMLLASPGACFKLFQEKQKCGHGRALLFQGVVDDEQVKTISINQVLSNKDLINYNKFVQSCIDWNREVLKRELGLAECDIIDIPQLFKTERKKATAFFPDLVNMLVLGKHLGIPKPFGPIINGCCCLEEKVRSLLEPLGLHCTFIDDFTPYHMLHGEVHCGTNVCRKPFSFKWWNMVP

IC50 [1]: 740 nM | IC50 [2]: 1000 nM | IC50 [3]: 170 nM | IC50 [4]: 970 nM
Compound: NC1=CC(=O)c2cccnc2C1=O
